Measured values taken from ChEMBL document CHEMBL1201862, “PubChem BioAssay data set” (2004).
Values belong to the molecule of their own block, whether it stands above or below them. The source made the active and inactive calls.

Tests used:
[1] = target: T1, 1-phosphatidylinositol 4,5-bisphosphate phosphodiesterase gamma-1 (Homo sapiens, UniProt P19174); assay: Counterscreen for inhibitors of phospholipase C isozymes (PLC-B3): Fluorescence-based biochemical high throughput dose response assay to identify inhibitors of phospholipase C isozymes (PLC-gamma1).
T1 sequence (P19174 whole entry): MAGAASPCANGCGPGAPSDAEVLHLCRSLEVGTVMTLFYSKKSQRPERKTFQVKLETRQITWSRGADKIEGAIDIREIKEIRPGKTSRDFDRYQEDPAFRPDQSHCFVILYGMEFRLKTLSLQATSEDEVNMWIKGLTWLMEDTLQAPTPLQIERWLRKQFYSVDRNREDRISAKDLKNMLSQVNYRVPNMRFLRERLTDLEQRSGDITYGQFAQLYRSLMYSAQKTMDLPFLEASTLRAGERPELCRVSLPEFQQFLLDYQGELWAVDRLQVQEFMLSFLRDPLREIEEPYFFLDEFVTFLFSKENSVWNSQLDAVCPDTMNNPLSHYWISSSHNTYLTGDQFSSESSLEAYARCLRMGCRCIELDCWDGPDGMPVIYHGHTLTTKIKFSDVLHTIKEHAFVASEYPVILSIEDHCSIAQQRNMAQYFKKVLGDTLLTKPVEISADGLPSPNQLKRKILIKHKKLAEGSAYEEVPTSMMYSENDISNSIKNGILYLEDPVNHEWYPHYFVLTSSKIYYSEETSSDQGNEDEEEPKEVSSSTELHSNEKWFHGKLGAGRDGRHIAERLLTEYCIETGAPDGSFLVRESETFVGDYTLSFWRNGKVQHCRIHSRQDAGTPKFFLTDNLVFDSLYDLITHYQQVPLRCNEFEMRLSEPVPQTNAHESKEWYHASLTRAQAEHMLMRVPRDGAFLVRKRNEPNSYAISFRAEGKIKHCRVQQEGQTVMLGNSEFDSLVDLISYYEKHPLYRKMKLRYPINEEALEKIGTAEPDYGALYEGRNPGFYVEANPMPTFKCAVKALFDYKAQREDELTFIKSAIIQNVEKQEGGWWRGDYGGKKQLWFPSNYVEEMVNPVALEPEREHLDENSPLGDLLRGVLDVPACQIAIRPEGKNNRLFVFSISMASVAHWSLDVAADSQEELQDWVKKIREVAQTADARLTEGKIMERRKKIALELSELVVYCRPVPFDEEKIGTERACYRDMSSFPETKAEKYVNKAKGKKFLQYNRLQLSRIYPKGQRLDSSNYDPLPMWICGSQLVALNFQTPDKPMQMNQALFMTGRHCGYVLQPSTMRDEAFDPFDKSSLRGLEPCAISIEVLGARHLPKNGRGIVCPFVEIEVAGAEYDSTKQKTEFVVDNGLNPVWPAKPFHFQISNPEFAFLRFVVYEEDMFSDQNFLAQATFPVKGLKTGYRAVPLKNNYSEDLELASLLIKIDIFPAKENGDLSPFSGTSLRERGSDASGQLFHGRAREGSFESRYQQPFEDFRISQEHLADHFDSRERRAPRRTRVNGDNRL

[2] = target: T2, 1-phosphatidylinositol 4,5-bisphosphate phosphodiesterase beta-3 (Homo sapiens, UniProt Q01970); assay: Fluorescence-based biochemical high throughput dose response assay to identify inhibitors of phospholipase C isozymes (PLC-B3).
T2 sequence (Q01970 whole entry): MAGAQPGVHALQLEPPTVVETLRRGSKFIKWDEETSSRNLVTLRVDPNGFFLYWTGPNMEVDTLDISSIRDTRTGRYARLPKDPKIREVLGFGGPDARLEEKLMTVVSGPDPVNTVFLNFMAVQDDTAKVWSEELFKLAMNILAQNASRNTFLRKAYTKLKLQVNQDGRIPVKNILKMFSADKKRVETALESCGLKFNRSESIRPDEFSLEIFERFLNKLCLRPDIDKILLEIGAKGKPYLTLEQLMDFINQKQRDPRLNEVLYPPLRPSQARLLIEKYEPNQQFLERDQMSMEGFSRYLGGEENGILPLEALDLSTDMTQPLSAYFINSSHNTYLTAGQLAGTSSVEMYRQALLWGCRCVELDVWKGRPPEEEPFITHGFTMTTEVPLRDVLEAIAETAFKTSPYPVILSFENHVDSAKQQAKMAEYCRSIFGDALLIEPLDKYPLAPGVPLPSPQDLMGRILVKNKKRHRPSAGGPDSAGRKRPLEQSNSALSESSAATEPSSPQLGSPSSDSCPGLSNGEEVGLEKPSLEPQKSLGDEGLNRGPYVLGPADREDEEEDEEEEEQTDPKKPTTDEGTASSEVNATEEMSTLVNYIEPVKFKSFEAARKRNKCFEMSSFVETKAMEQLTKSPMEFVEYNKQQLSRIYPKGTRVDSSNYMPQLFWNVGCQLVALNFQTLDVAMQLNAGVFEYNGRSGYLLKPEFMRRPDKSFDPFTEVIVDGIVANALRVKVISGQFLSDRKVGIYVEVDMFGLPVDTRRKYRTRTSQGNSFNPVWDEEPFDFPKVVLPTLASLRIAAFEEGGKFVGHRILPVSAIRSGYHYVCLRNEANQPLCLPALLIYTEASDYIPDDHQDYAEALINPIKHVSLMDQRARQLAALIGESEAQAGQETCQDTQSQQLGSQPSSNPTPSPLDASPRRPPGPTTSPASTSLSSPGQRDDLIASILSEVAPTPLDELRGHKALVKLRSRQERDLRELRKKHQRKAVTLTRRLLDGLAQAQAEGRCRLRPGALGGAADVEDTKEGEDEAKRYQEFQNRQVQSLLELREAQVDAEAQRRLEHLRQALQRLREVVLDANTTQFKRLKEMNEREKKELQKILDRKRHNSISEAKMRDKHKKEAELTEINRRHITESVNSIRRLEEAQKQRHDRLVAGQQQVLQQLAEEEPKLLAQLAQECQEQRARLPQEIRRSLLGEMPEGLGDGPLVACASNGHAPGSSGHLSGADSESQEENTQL

[3] = viability inhibitors of stage V gametocytes – luminescence, dose response (AID 1117278); type: functional, cell-based;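 further: gametocytes exposed to compound for 24 hours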
[4] = viability loss in human Jurkat cells – cell-based, luminescence, cytotoxicity control for P. falciparum gametocyte viability project, dose response (AID 1117277); type: functional;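 further: potency reflects loss of cellular ATP meaning fewer viable cells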
[5] = growth inhibition of yeast DHODH-expressing 3D7 parasites – SYBR Green, dry powder samples, dose response (AID 1159570); type: functional, cell-based;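 further: parasite growth measured after 72 hours of compound exposure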
[6] = toxicity to human HepG2 hepatoma cells – cell-based, plate reader, dry powder samples, cytotoxicity control, dose response (AID 1159569); type: functional;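 further: inhibitor potency with signal falling toward the positive control level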
[7] = P. falciparum Dd2 growth inhibitors, dose response, SYBR Green, cherry-picked samples (AID 1159567); type: functional, cell-based
[8] = Dd2 malaria parasite growth inhibition potency – SYBR Green, dry powder samples, dose response (AID 1159566); type: functional, cell-based;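 further: potency for growth inhibition with lower SYBR green DNA signal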
[9] = growth inhibition of PfATP4-mutant resistant parasites – NITD609-resistant line, SYBR Green, dry powder, dose response (AID 1159571); type: functional, cell-based;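 further: parasites synchronized at ring stage by sorbitol before testing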
[10] = viability loss in Vero cells – cytotoxicity control for Vif-APOBEC3G degradation inhibitor project, dose response (AID 1117358); type: functional; conditions: Vero
Cytochrome P450 1A2 = target: T3, Cytochrome P450 1A2 (Homo sapiens, UniProt P05177);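 further: PubChem cytochrome P450 panel assay, CYP1A2 panel member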
T3 sequence (P05177 whole entry): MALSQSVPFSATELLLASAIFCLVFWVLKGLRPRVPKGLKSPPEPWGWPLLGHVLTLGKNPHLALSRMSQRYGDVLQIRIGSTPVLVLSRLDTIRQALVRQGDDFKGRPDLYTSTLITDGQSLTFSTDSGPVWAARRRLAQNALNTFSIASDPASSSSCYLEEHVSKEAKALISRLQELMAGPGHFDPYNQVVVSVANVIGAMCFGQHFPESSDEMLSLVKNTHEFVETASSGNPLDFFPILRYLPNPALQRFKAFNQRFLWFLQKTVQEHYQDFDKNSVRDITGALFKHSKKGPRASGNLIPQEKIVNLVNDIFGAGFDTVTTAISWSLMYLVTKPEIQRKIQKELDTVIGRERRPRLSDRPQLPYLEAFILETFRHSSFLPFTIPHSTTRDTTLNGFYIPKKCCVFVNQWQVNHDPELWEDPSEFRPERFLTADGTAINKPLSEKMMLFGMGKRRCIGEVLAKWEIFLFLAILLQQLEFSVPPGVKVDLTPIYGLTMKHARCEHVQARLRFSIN

[11] = general mammalian cell viability loss – inhibitor set, cherry-pick, set 2, cytotoxicity control for miR-122 modulator project, dose response (AID 720697); type: functional, cell-based
[12] = general mammalian cell viability loss – activator set, cherry-pick, cytotoxicity control for miR-122 modulator project, dose response (AID 720690); type: functional, cell-based;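 further: HEK293T human cells scored for general mammalian cytotoxicity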

Compound: COc1ccccc1-n1c(CNCC2CCCO2)nc2ccccc2c1=O (centres undefined)
- IC50 [1]: > 122 µM (inactive)
- IC50 [2]: > 122 µM (inactive)

Compound: NS(=O)(=O)c1ccc(N2CCCC2=O)c([N+](=O)[O-])c1
- IC50 [3]: > 109 µM (inactive)
- IC50 [4]: > 83.2 µM (inactive)

Compound: COc1ccc(NC(=O)Nc2ccc3c(c2)[C@@H]2C[C@H](CC(=O)N[C@@H](C)c4ccccc4)O[C@H](CO)[C@@H]2O3)cc1
- AC50 [5]: 35.3 µM (active)
- AC50 [6]: > 100 µM (inactive)
- AC50 [7]: 2.22 µM (active)
- AC50 [8]: 1.62 µM (active)
- AC50 [9]: 2.16 µM (active)

- IC50 [1]: 35.7 µM (inactive)
- IC50 [2]: > 123 µM (inactive)
Compound: O=C1CS(=O)(=O)c2ccccc2N1

Compound: COc1ccc(CCNCc2c(OC)ccc3ccccc23)cc1
- IC50 [1]: > 123 µM (inactive)
- IC50 [2]: > 123 µM (inactive)

- AC50 (Cytochrome P450 1A2): 22.4 µM (inconclusive)
Compound: Cc1ccc(NS(=O)(=O)c2ccc(OCC(=O)Nc3cccc([N+](=O)[O-])c3)c(C)c2)cc1
- CC50 [10]: > 40 µM (active)

Compound: COc1ccccc1CN(C)C(C)C(=O)Nc1cccc(C(C)=O)c1 (centres undefined)
- IC50 [3]: > 109 µM (inactive)
- IC50 [4]: > 83.3 µM (inactive)

Compound: CNC[C@H]1Oc2cc(C#CC3CCCCC3)ccc2S(=O)(=O)N([C@H](C)CO)C[C@@H]1C
- AC50 [11]: 0.433 µM (active)
- AC50 [12]: 28.8 µM (active)
